In patent US20060171983A1, “Use of Vitamin D receptor activators or Vitamin D analogs to treat cardiovascular disease” (priority 2003, published 2006):
“Also recorded” adds a separate entry of the source. Where two headings read alike, the source gives them in different places. Values belong to the molecule of their own block, whether it stands above or below them.

Experiments:
human CASMC = test: 45Ca uptake into primary culture of human coronary artery smooth muscle cells
Description: Primary cultured human CASMC were grown to >80% confluence and used within five passages. Cells were treated with drugs for 5 days in the appropriate medium, and then changed back to base medium (N1: DMEM containing 1.8 mM Ca^+2 and 0.9 mM PO−4) containing 0.2 μCi/ml ^45Ca for 24 hr. Afterwards, cells were washed with PBS three times and radioactivity measured by liquid scintillation.

[1] = test system: bovine vascular smooth muscle cells (SMC); conditions: 10^-7 to 10^-9 M, in vitro; cited from earlier work
PAI-1 [2] = test: PAI-1 Western blot in primary culture of human coronary artery smooth muscle cells; assay type: cell-based; conditions: 24 hr
Description: Human coronary artery smooth muscle cells were incubated with paricalcitol or calcitriol at the indicated concentration for 24 hr at 37° C. Samples were solubilized in SDS-PAGE sample buffer, and the protein content in each sample was determined by the Bio-Rad dye-binding protein assay. Samples were resolved by SDS-PAGE using a 4-12% gel, and proteins were electrophoretically transferred to PVDF membrane for Western blotting. The membrane was blotted for 1 h at 25° C. with 5% nonfat dry milk in PBS-T and then incubated with a mouse anti-PAI-1 monoclonal antibody in PBS-T overnight at 4° C. The membrane was washed with PBS-T and incubated with a horseradish peroxidase-labeled […] antibody for 1 h at 25° C. The membrane was then incubated with detection reagent (SuperSignal WestPico). The specific bands were visualized by exposing the paper to Kodak BioMax films.

[3] = Observational cohort study of hospitalization outcomes in hemodialysis patients; assay type: in vivo, human; conditions: for median number of days spent in the hospital (hospital days per year) / median number of hospitalizations in a year: hemodialysis patients, FIG. 2; for fewer hospital days compared to the No Vitamin D group / fewer hospitalizations compared to the No Vitamin D group: regression analysis, FIG. 3
Text: This study was expanded to include patients who received no Vitamin D receptor activator treatment. [“Improved hospitalization outcomes in hemodialysis patients treated with paricalcitol.” J. Melnick, et al., abstract book from World Congress of Nephrology, Jun. 8-12, 2003, Berlin.

[4] = assay type: in vivo, rat
Description: It is clinically important to suppress elevated serum PTH levels in ESRD patients with established secondary hyperparathyroidism (SHPT) independent of hypercalcemia. Moreover, the 5/6 uremic rat model has effectively predicted the clinical profile of vitamin D analogues with respect to PTH and hypercalcemia. Thus, a direct comparison was conducted of paricalcitol (PARI) and doxercalciferol (DOX) in male Sprague Dawley rats subjected to 5/6 nephrectomy (surgical ablation) placed on 4 weeks of a high phosphorous diet (0.9% phos., 0.6% Ca) to establish SHPT. On Day 0, rats received vehicle (VEH; 5% ethanol, 95% propylene glycol; 0.4 ml/kg; IP) or drug (0.083, 0.17, 0.33, 0.66 mcg/kg; n=7-10/group) 3 times/week for 12 days. Blood samples were collected 24 hr post dose (Day 13). Day 0 values (mean±SEM) for: creatinine (VEH vs sham) were 1.02±0.05 vs 0.48±0.01 mg/dL; PTH, 1320±185 vs 178±11 pg/ml; blood ionized calcium (iCa; 1.26±0.01 vs 1.30±0.01 mmol/L); phosphorous (8.70±0.34 vs 7.36±0.09 mg/dL). In VEH, the ratio of Day 13/Day 0 iCa values declined to 0.93±0.02 vs 1.02±0.01 for sham; PTH and phosphorous tended to increase. […] PARI had no effect on iCa at 0.33 mcg/kg whereas the iCa ratio increased modestly to 1.05±0.02*# at 0.66 mcg/kg, less than that of DOX. The Day 13/Day 0 PTH ratios for DOX fell to 0.43±0.12, 0.26±0.06*, and 0.22±0.11* in response to 0.18, 0.33, 0.66 mcg/kg, respectively, while PARI decreased PTH ratios to 0.37±0.07*, 0.33±0.06*, 0.13±0.02*. Serum phosphorus was not affected in any treatment group. […] Thus, in the uremic rat with established SHPT, DOX suppresses serum PTH levels concomitant with dose-dependent elevations in ionized calcium greater than those caused by equal doses of. PARI. At these doses, PARI effectively reduces PTH without eliciting dose-dependent changes in ionized blood calcium. *=p<0.05 vs. VEH ANOVA; # p<0.05 unpaired t test DOX vs PARI

[5] = Active calcium transport in duodenum ex vivo; design: species or system rat; conditions: uremic rats with SHPT
[6] = Vascular calcification in 5/6 nephrectomized uremic rats; assay type: in vivo, rat; conditions: for elevation of iCa: 0.67 μg/kg; for Ca content in aorta compared to vehicle / phosphorus content in aorta compared to vehicle / 45Ca uptake in aorta rings compared to vehicle: 0.67 μg/kg i.p. 3 times/week for 2 weeks; for 45Ca uptake in aorta rings compared to vehicle: rings 3 days in 45Ca
Description: The 5/6 nephrectomized rats were obtained from Charles River Labs. (Wilmington, Mass.). Two weeks after nephrectomy, rats were put on a diet containing 0.9% phosphorous and 0.6% calcium for 4 weeks, followed by treatment with vehicle (5% ethanol+95% propylene glycol, 0.4 ml/kg), paricalcitol or doxercalciferol at 0.67 μg/kg, i.p., 3 times/week, for 2 weeks. Twenty-four hours after the last dosing, blood was collected via tail vein under ketamine anesthesia (50 mg/kg) and aorta collected for calcification studies. […] After the aortas were removed in a sterile manner from the rats, the aventitia was gently removed and each aorta was washed three times with medium. A segment of each aorta was processed for calcium and phoshphorus determination. A separate portion of each aorta was denuded, cut into 2-3-mm rings and placed in DMEM containing 0.2 μCi/ml ^45Ca for 3 days at 37° C. Afterwards, aortic rings were washed, dried, weighed, and then dissolved to determine radioactivity. […] Both paricalcitol and doxercalciferol at 0.67 μg/kg elevated iCa (˜25%) and suppressed PTH (>90%).

CYP24A1 = CYP24A1 mRNA expression in human CASMC (control); assay type: cell-based; conditions: dose-dependent manner
[7] = Dobrez et al. 2004; cited from earlier work
renin [8] = test: In vivo renin inhibition in CD-1 male mice; design: species or system mouse; conditions: 1.5 and 3.0 μg/kg i.p. 3 times a week for three weeks
renin [9] = test: Renin mRNA expression in vitamin D-deficient rats; assay type: in vivo, rat; conditions: 0.003-0.3 μg/kg i.p. three times per week, 2 weeks
Description: (§1) Weanling Sprague-Dawley male rats housed in an environment free of UV light were fed a 0.4% Ca, 0.3% P, vitamin D-deficient diet for 5 weeks, then switched to a 0.02% Ca, 0.5% P, vitamin D-deficient diet for 21 days. Rats were dosed with 0.003, 0.01, 0.03, and 0.3 μg/kg of paricalcitol, i.p., three times per week, for the final 2 weeks. A control group of animals was given vehicle only (5% ethanol/95% propylene glycol), and untreated, age-matched animals on normal diet (0.5% Ca, 0.4% P) served as normal peer control. Twenty-four hours after the last dose, the rats were anesthetized with ketamine (100 mg/kg), cardiac bled, killed by CO2, tissues collected for RNA extraction and real-time RT-PCR analysis, and serum taken for determination of calcium, phosphorus, and PTH.

[10] = Renin mRNA expression in vitamin D-deficient rats; assay type: in vivo, rat; conditions: 0.003-0.3 μg/kg i.p. three times per week, 2 weeks
Description: as §1

[11] = Historical cohort of vascular access changes in HD patients with AV fistula; assay type: in vivo, human
Description: Methods: A historical cohort of 2112 adult patients new to HD, with an AV fistula as the initial primary vascular access were followed over a 35-month period (January 1999 thru November 2001) using a dialysis provider database. Patients were treated with Zemplar or no vitamin D therapy; patients receiving Zemplar therapy received at least 10 doses and remained on the same therapy. Descriptive summary statistics were used to summarize baseline characteristics and the total number of vascular access changes per year between treatment modalities. In addition, regression models were used to evaluate the association between Zemplar or no vitamin D therapy and the total number of vascular access changes per year.

[12] = test system: renin mRNA expression in As4.1-hVDR cells; test: Northern blot of renin mRNA expression in As4.1-hVDR cells; assay type: cell-based
Text: (§2) Using an in vitro cell culture system, the activity of paricalcitol to suppress renin gene expression was examined using previously published techniques (1,25-Dihydroxyvitamin D3 is a negative endocrine regulator of the renin-angiotensin system, J. Clin. Invest., July 2002). […] This inhibitory effect is confirmed by renin promoter-luciferase reporter assays, which examine the activity of paricalcitol to suppress renin gene transcription.
(§3) In the present study, an investigation was made of the in vitro and in vivo activity of paricalcitol, a FDA-approved low calcemic vitamin D analog, to inhibit renin biosynthesis. To this end, As4.1-hVDR cells, a JG cell-like cell line stably transfected with human VDR, was treated with paricalcitol or 1,25(OH)2D3 at doses ranging from 10^−10 to 10^−7 M for 24 hours, and its renin-inhibiting activity was assessed by Northern blot analyses; the cells were also transfected with renin gene promoter-luciferase reporter plasmid, and luciferase activity was determined in the presence and absence of paricalcitol or 1,25(OH)2D3.

PAI-1 [13] = test: PAI-1 mRNA expression in human CASMC (control); assay type: cell-based; conditions: dose-dependent manner
24(OH)ase = test: Effect of drugs on the expression of 24(OH)ase; assay type: cell-based; conditions: relative to calcitriol
Description: Two observations may be noted in these studies: (1) 100% inhibition of growth was never achieved even at 1 μM of any of the test compound. Confocal microscopy studies confirm that, although these drugs are potent in inducing the translocation of VDR from cytoplasm to nucleus, not all cells respond to VDRAs even after 2 h of exposure, which may explain the <100% inhibition. […] Paricalcitol is usually dosed approximately 4 fold higher than calcitriol in the clinical situation, which may translate into a 4-fold higher potency in regulating the function of smooth muscle cells.

renin gene promoter = test: Renin promoter-luciferase reporter assay; assay type: cell-based
Text: as §2, §3

[14] = 1-100 nM, cells in N1 or 60% N1/40% P1 media, 5 days
[15] = 0.18 mcg/kg IP 3 times/week for 12 days
[16] = 0.33 mcg/kg IP 3 times/week for 12 days
[17] = 0.66 mcg/kg IP 3 times/week for 12 days

Structure (SMILES): C=C1/C(=C\C=C2/CCC[C@]3(C)[C@@H]([C@H](C)CCCC(C)(C)O)CC[C@@H]23)C[C@@H](O)C[C@@H]1O [calcitriol]
effect on 45Ca uptake (human CASMC; [14]): no significant effects
calcification of bovine vascular smooth muscle cells [1]: dose dependent increase
potency in reducing the PAI level (PAI-1 [2]): equally potent
median number of days spent in the hospital (hospital days per year) [3]: 10.6 days
median number of hospitalizations in a year [3]: 2.2
fewer hospital days compared to the No Vitamin D group [3]: 7.7 days
fewer hospitalizations compared to the No Vitamin D group [3]: no statistical difference

active calcium transport in duodenum ex vivo [5]: dose-dependent increase
elevation of iCa [6]: ~25%
Ca content in aorta compared to vehicle [6]: 1.0 fold
phosphorus content in aorta compared to vehicle [6]: 17 fold
45Ca uptake in aorta rings compared to vehicle [6]: 40 fold
Structure (SMILES): C=C1/C(=C\C=C2/CCC[C@]3(C)[C@@H]([C@H](C)/C=C/[C@H](C)C(C)C)CC[C@@H]23)C[C@@H](O)C[C@@H]1O [doxercalciferol]
Day 13/Day 0 PTH ratio [4, 15]: 0.43±0.12
Day 13/Day 0 PTH ratio [4, 16]: 0.26±0.06
Day 13/Day 0 PTH ratio [4, 17]: 0.22±0.11

Structure (SMILES): C[C@H](/C=C/[C@H](C)C(C)(C)O)[C@H]1CC[C@H]2/C(=C/C=C3C[C@@H](O)C[C@H](O)C3)CCC[C@]12C [paricalcitol]
Day 13/Day 0 PTH ratio [4, 15]: 0.37±0.07
Day 13/Day 0 PTH ratio [4, 16]: 0.33±0.06
Day 13/Day 0 PTH ratio [4, 17]: 0.13±0.02
active calcium transport in duodenum ex vivo [5]: no effect
effect on 45Ca uptake (human CASMC; 100 nM, cells in N1 medium or different doses of P1 medium (20-60%)): did not show a significant effect
effect on 45Ca uptake (human CASMC; [14]): no significant effects
CYP24A1 mRNA expression (CYP24A1): stimulated
hospitalizations related to cardiovascular events and non-infectious inflammations compared with calcitriol [7]: fewer hospitalizations
body weight (renin [8]): no effect
levels of blood ionized calcium (renin [8]): only slightly increased
renal renin mRNA expression (renin [9]): normalized
calcium [10]: did not result in a significant change
serum PTH [10]: reduced serum PTH dose-dependently
total number of vascular access changes (average) ([11]; HD patients with AV fistula, p=0.0034 vs no D): 0.6 changes per year
more vascular access changes in No D group than in Zemplar patients ([11]; negative binomial regression, p=0.038): 28%
renin-inhibiting potency relative to calcitriol / 1,25(OH)2D3 [12]: comparable to that of 1,25(OH)2D3; also recorded: a bit more potent than calcitriol
effect on renin mRNA expression ([12]; 10^-10 to 10^-7 M, 24 hours): suppresses; also recorded: dose-dependently inhibits
potency in reducing the PAI level (PAI-1 [2]): equally potent
median number of days spent in the hospital (hospital days per year) [3]: 5.2 days
median number of hospitalizations in a year [3]: 1.5
fewer hospital days compared to the No Vitamin D group [3]: 17.5 days
fewer hospitalizations compared to the No Vitamin D group [3]: 1.2
elevation of iCa [6]: ~25%
Ca content in aorta compared to vehicle [6]: 1.6 fold
phosphorus content in aorta compared to vehicle [6]: no significant difference
45Ca uptake in aorta rings compared to vehicle [6]: no significant difference
PAI-1 mRNA expression (PAI-1 [13]): suppressed
potency on stimulating the expression of 24(OH)ase (24(OH)ase): less potent than calcitriol
potency in suppressing renin gene promoter activity relative to calcitriol / 1,25(OH)2D3 (renin gene promoter): comparable to that of 1,25(OH)2D3; also recorded: at least as potent as calcitriol
effect on renin gene transcription (renin gene promoter; As4.1-hVDR cells): suppresses
